Measurements taken from patent US5672710A, “Sulfides, sulfoxides and sulfones disubstituted with a tetrahydronaphthalenyl, chromanyl, thiochromanyl or tetrahydroquinolinyl and substituted phenyl or heteroaryl group, having retinoid-like biological activity” (priority 1995, dated 1997).

Target: T1, RXRγ (Mus musculus, UniProt P28705)
T1 construct: expressed in transfected cells; host or cells: CV1
T1 sequence (P28705 1-463): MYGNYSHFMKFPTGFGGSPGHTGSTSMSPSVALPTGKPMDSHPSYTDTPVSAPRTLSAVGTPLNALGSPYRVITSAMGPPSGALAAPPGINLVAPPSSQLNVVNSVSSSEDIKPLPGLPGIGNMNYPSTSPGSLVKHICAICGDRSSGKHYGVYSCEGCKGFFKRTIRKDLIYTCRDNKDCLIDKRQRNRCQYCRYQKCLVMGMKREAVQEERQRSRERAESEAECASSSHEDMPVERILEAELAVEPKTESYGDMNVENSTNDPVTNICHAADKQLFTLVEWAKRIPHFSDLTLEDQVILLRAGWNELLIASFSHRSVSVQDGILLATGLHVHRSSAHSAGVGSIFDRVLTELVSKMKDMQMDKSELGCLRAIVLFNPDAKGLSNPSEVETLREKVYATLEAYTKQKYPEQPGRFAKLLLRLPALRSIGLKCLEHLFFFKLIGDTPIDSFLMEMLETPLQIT
Experiment: Holoreceptor transactivation assay, RXRγ
Type: cell-based
Conditions: CV1 cells; for EC50: 36 hours; for Emax: CV-1, relative to all trans retinoic acid, read-out: Transactivation Assay Efficacy (% of RA activity), RXRγ
Description: A holoreceptor transactivation assay and a ligand binding assay which measure the ability of the compounds of the invention to bind to the several retinoid receptor subtypes, respectively, are described in published PCT Application No. WO W093/11755 (particularly on pages 30-33 and 37-41) published on Jun. 24, 1993, the specification of which is also incorporated herein by reference. A description of the holoreceptor transactivation assay is also provided below.
CV1 cells (5,000 cells/well) were transfected with an RAR reporter plasmid MTV-TREp-LUC (50 ng) along with one of the […] expression vectors (10 ng) in an automated 96-well format by the calcium phosphate procedure of Heyman et al. Cell 68, 397-406. (8). For RXRα and RXR.GAMMA. transactivation assays, an RXR-responsive reporter plasmid CRBPII-tk-LUC (50 ng) along with the appropriate RXRexpression vectors (10 ng) was used substantially as described by Heyman et al. above, and Allegretto et al. J. Biol. Chem. 268, 26625-26633. For RXRβ transactivation assays, an RXR-responsive reporter plasmid CPRE-tk-LUC ([…]) along with RXRβ expression vector ([…]) was used as described in above. These reporters contain DRI elements from human CRBPII and certain DRI elements from promoter, respectively. (see Mangelsdorf et al. The Retinoids: Biology, Chemistry and Medicine, pp 319-349, Raven Press Ltd., New York and Heyman et al., cited above) (1, 8). A β-galactosidase (50 ng) expression vector was used as an internal control in the transfections to normalize for variations in transfection efficiency. The cells were transfected in triplicate for 6 hours, followed by incubation with retinoids for 36 hours, and the extracts were assayed for luciferase and β-galactosidase activities. The detailed experimental procedure for holoreceptor transactivations has been described in Heyman et al. above, and Allegretto et al. cited above. The results obtained in this assay in connection with examplary compounds in accordance with the present invention are expressed in EC50 numbers, as they are also in the chimeric receptor transactivation assay. The Heyman et al. Cell 68, 397-406, Allegretto et al. J. Biol. Chem. 268, 26625-26633, and Mangelsdorf et al. The Retinoids: Biology, Chemistry and Medicine, pp 319-349, Raven Press Ltd., New York, are expressly incorporated herein by reference. The results of ligand binding assay are expressed in Kd numbers. (See Cheng et al. Biochemical Pharmacology Vol. 22 pp 3099-3108, expressly incorporated herein by reference.)

EC50 [nM]	Emax [%]	Compound
2600	26	CC1(C)CCC(C)(C)c2cc(S(=O)(=O)c3ccc(C(=O)O)cc3)ccc21 [Compound 5, 4-(5,6,7,8-tetrahydro-5,5,8,8-tetramethyl-2-naphthylsulfonyl)benzoic acid]
230	67	Cc1cc2c(cc1Sc1ccc(C(=O)O)cc1)C(C)(C)CCC2(C)C [Compound 7, 4-(5,6,7,8-tetrahydro-3,5,5,8,8-pentamethyl-2-Daphthylthio)benzoic acid]
1600	28	Cc1cc2c(cc1[S+]([O-])c1ccc(C(=O)O)cc1)C(C)(C)CCC2(C)C (stereo not shown) [Compound 9, 4-(5,6,7,8-tetrahydro-3,5,5,8,8-pentamethyl-2-naphthylsulfoxy)benzoic acid]
42	85	Cc1cc2c(cc1Sc1ccc(C(=O)O)cn1)C(C)(C)CCC2(C)C [Compound 13]
1900	70	Cc1cc2c(cc1Sc1ncc(C(=O)O)s1)C(C)(C)CCC2(C)C [Compound 15, 2-(5,6,7,8-Tetrahydro-3,5,5,8,8-pentamethyl-2-naphthylthio)-5-thiazolecarboxylic acid]
